We go through 16 compounds from PubChem BioAssay (NCI).

Common to all, as to test: inhibition of tumour cell growth, NCI panel, 48 h
The subject of experiment [1] is SK-MEL-5 melanoma.
The subject of experiment [2] is SK-MEL-28 melanoma.
In experiment [3] the test system is SF-539 CNS.
Experiment [4] deals with HT29 colon.
The test system of experiment [5] is NCI-H460 lung.
In experiment [6] the test system is NCI-H226 lung.
For experiment [7], the system named is MDA-MB-435.
For experiment [8], the system named is SNB-75 CNS.
Experiment [9] deals with SK-OV-3 ovarian.

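Tested at 5 concentrations; 48 h exposure; 96-well plates; endpoints linearly interpolated, else capped at highest concentration. TGI marks complete inhibition of growth.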

With `CN(CCNC(=O)c1c[nH]c2c1Cc1ccccc1-2)CCNC(=O)c1c[nH]c2c1Cc1ccccc1-2`, the TGI is 71.4 µM in [1]; greater than 100 µM in experiment [2]; 49.2 µM in experiment [3]; greater than 100 µM in experiment [4]; greater than 100 µM in [5]; 71.9 µM in [6]. Also, in [7], the TGI amounted to 41.3 µM.
Regarding `O=C(O)c1nc2ccc(C(F)(F)F)cc2nc1Nc1ccc(F)cc1`, the TGI in [1] is greater than 100 µM; in experiment [8], 60 µM; in experiment [2], greater than 100 µM; in experiment [4], greater than 100 µM; in experiment [5] it was 50.9 µM; in experiment [6], 57 µM. The same compound returned a TGI in experiment [7] of 44.7 µM.
As to `CCOC(=O)c1c(SC(=O)c2ccc(OC)cc2)n(-c2ccccc2)c(=S)n(-c2ccccc2)c1=O`, the TGI in experiment [8] was greater than 100 µM; in experiment [2], greater than 100 µM; in experiment [3] it was 42.2 µM; in experiment [4], greater than 100 µM; in experiment [5], greater than 100 µM; in experiment [9], greater than 100 µM. For the same compound, the TGI in experiment [6] and in experiment [7] was greater than 100 µM throughout.
On to `Cc1ccc(C2(c3ccc(F)cc3)OC(=O)c3ccccc32)c(O)c1` (stereo not given), for which the TGI in experiment [1] is 33.8 µM; in experiment [8], 31.6 µM; in [3], 37.5 µM; in experiment [4], greater than 100 µM; in [5], 35.5 µM; in experiment [9] it was 26.4 µM. The figures for the TGI in experiment [6] and in [7] were 76.2 µM and 31.6 µM, respectively.
On to `O=c1c(Cc2ccc(Cl)cc2)nnc2sc(-c3ccc(-c4ccc(Cl)cc4Cl)o3)nn12`, for which the TGI in experiment [1], in experiment [2], in experiment [3], in [4], in experiment [5] and in experiment [9] was greater than 100 µM in each case. Besides, the TGI in [6] and in experiment [7] was greater than 100 µM throughout.
On to `CCc1c(-c2ccc(OC)cc2)oc(OC)c(C)c1=O`, for which the TGI in [1], in experiment [8], in experiment [2], in experiment [3], in experiment [4] and in experiment [5] was greater than 100 µM each time. Also, the TGI in experiment [9] and in experiment [7] was greater than 100 µM in each case.
In the case of `COc1cc(-c2c3c(cc4c2OCO4)[C@@H](Nc2ccc(-c4ccc(-c5ccc(N[C@@H]6c7cc8c(cc7C(c7cc(OC)c(O)c(OC)c7)[C@H]7C(=O)OC[C@H]67)OCO8)cc5)cc4)cc2)[C@H]2COC(=O)[C@@H]2C3)cc(OC)c1O` (stereo not given in full), the TGI in experiment [1] was found to be 7.58 µM; in [2] it was 15.7 µM; in [4] it was 5.62 µM; in experiment [5], 10.7 µM; in experiment [9], 10.1 µM; in [6], 6.31 µM. This compound displayed a TGI in [7] of 3.86 µM.
Take `COc1cc2c(cc1OC)C(=O)/C(=C/c1cc(C)cc(C)c1)C2`: the TGI in experiment [1] was 0.932 µM; in experiment [8], greater than 100 µM; in [2], greater than 100 µM; in experiment [4] it was 0.835 µM; in experiment [5], 5.1 µM; in experiment [9] it was greater than 32.9 µM. The same compound yielded a TGI in experiment [6] of 0.617 µM.
Regarding `CC1=C(C)CC2(C=C(C(C)(C)C)C(=O)C(C(C)(C)C)=C2)SC1`, the TGI is 27.4 µM in experiment [1]; 34.2 µM in experiment [8]; 38 µM in experiment [3]; 43 µM in experiment [4]; greater than 100 µM in experiment [5]; 71 µM in experiment [9]. Also, the TGI in experiment [6] turned out to be 34.4 µM; in experiment [7], 43.6 µM.
Consider `CCC(C)C1=C(O)[N+]2([O-])Oc3ccc(-c4c(O)c(O)c(-c5ccc(OC(C)=O)cc5)c(OC(C)=O)c4OC(C)=O)cc3OC2(C(C)CC)C(=O)N1O` (stereo not given), for which the TGI in [1], in [2], in [3], in [4], in experiment [5] and in [9] was greater than 50 µM each time. Moreover, in experiment [7], the TGI is greater than 50 µM.
For the compound `CCOC(=O)C1(C#N)CC1`, the TGI in experiment [1], in experiment [8], in experiment [2], in [3], in experiment [4] and in experiment [5] was greater than 100 µM in each case. The TGI in experiment [9] and in [6] was greater than 100 µM each time.
As for `[N-]=[N+]=CC(=O)OCCCCl`, the TGI in experiment [1], in experiment [2], in [4], in experiment [5], in experiment [9] and in experiment [6] was greater than 100 µM throughout. In [7], this compound had a TGI greater than 100 µM.
In the case of `CCCCOC(=O)C1CC[C@H]2[C@@H]3CCc4cc(OC(=O)c5cccc6c(=O)c7ccccc7[nH]c56)ccc4[C@H]3CC[C@]12C` (stereo not given in full), the TGI came out at 12.8 µM in [1]; 18.3 µM in experiment [8]; 21.2 µM in experiment [2]; 18.6 µM in experiment [4]; 18 µM in experiment [9]; 20.6 µM in experiment [6]. This compound came in with a TGI in experiment [7] of 18 µM.
Turning to `Cc1ccc2nc(-c3ccc(C(C)(C)C)cc3)oc(=O)c2c1`, the TGI in experiment [1] is 27.6 µM; in [8], 47.7 µM; in experiment [2] it was 62.1 µM; in experiment [3], 40.6 µM; in experiment [4], 38.3 µM; in experiment [5], 41.6 µM. Besides, the TGI amounted to 62.1 µM in experiment [9] and 43 µM in experiment [7].
As to `CN(CCc1ccccn1)C(=S)N/N=C(\c1ccccc1)c1ccccn1`, the TGI is 6.65 µM in [1]; 4.25 µM in experiment [8]; 6.01 µM in [2]; 2.77 µM in experiment [4]; 7.07 µM in [5]; 2.19 µM in experiment [9]. The same compound showed a TGI in [7] of 8.09 µM.
On to `O=C1C(c2c(O)[nH]c3ccc(Br)cc23)=Nc2ccc(Br)cc21`, for which the TGI is greater than 100 µM in [1]; 41.3 µM in experiment [8]; greater than 100 µM in experiment [2]; greater than 100 µM in [4]; greater than 100 µM in [5]; 90.8 µM in experiment [9]. In addition, the TGI in [6] and in experiment [7] was greater than 100 µM each time.
